Measurements published in US5539123A, “Low molecular weight thiocarbamates as inhibitors of elastase, uses and method of synthesis” (University of Kentucky Research Foundation, priority 1994, dated 1996).

Key:
Human Leucocyte Elastase = biological target: T1, Human Leucocyte Elastase (Homo sapiens, UniProt P08246); experiment: Inactivation of Human Leucocyte Elastase (HLE-catalyzed hydrolysis of N-Methoxysuccinyl-L-Ala-L-Ala-L-Pro-L-Val-p-nitroanilide); assay type: biochemical; conditions: for kinact/KI: second order rate constant, pH 7.5, 25° C., read-out: kobs/I; for times more potent than PC1: compared with PC1, kobs/I=3.3×10^4 M^-1 s^-1
T1 construct: Human leucocyte elastase from human sputum was purchased from elastin corporation; purchased elastin corporation; host or cells: human sputum
T1 sequence (P08246 30-247 limits assumed): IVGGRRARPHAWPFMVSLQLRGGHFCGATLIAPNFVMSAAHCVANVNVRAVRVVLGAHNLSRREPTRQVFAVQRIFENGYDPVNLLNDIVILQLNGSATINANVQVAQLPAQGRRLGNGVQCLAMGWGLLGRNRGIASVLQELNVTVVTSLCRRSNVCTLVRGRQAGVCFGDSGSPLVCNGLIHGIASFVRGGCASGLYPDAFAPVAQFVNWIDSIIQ
Experimental: Therefore, second order rate constants (kobs /I, M^-1 s^-1), (I=concentration inhibitor molar) shown in Formula 1, were determined by following the inactivation of the enzyme for 2 hours as described in the experimental section. […] The results are plotted as % of relative remaining activity vs time which is the absolute remaining activity in the presence of inhibitor divided by the absolute remaining activity of the free enzyme in absence of inhibitor for the same time interval.
In such a case a semilog plot of the relative remaining activity (A/Ao) vs time would describe a curve approaching the fractional activity (F) at longer times whereas a semilog plot of (A/Ao-F)/(1-F) vs time will be linear with a slope equal to the kobs, the pseudofirst order rate constant (equation 2).
The inactivation of HLE enzyme appears to involve the chemical modification of one residue on the enzyme and the pseudofirst order rate constant kobs divided by the concentration of the inhibitor (I) can be used as a measure of the inhibitory activity of the compounds (equation 3).
Human leucocyte elastase from human sputum was purchased from elastin corporation. Hepes, 4-(2-hydroxyethyl)-1-piperazineethanesulfonic acid, was purchased from Aldrich Chemical Co. (Milwaukee, Wis.). Substrate N-Methoxysuccinyl-L-Ala-L-Ala-L-Pro-L-Val-p-nitroanilide was purchased from Sigma Chemicals. Absorbance was measured with a VARIAN CARY-2200 spectrophotometer at 410 nm.
5 μl of acetate buffer (0.05M Sodium Acetate adjusted with 6N HCl to ph=5.5) is added to the reference cuvette, and the cuvette is shaken for 15 seconds to mix the solution. 5 μl of HLE 3.7×10^-5 M in acetate buffer is added to the sample cuvette and the cuvette is shaken for 15 seconds. Both cuvettes were placed in the jacketed cuvette holders of the spectrophotometer and incubated at 25° C. for a fixed time interval up to 2 hours (Incubation periods of 3, 4, 5, 7, 10, 15, 20, 30, 45, 60, 90 and 120 minutes were used).
Shortly before the incubation period ends, the cuvettes are balanced at 410 nm. […] The cuvettes are shaken for 15 seconds and the absorbance is recorded at 410 nm at 1 min, 2 min and 3 min after addition of substrate. A control in which 50 μl of dimethyl sulfoxide used to dissolve the inhibitor is added in its place, is done in the same manner as above for each incubation period.
Absorbance of sample is the absolute remaining activity of HLE (A), and absorbance of control is the total activity of HLE (Ao).
% Relative Remaining Activity=(A/Ao)×100
The % relative remaining activity of the HLE for each inhibitor is plotted against the time of incubation and from the slope of the semilog plot the kobs is determined.
The equation that describes this model is:
A/Ao=(1-F)e^-Kobst +F (equation 1)
Rearranging results in a linear relationship
Ln ((A/Ao)-F/1-F)=-kobs t (equation 2)
A semilog plot results in a straight line with slope=kobs, the pseudofirst order rate constant ksec =kobs /I (equation 3)
The ksec is the second order independent rate constant that is used to compare the inhibitory activity of the compounds against HLE.

[1] = Stability in excess of methanol with normal phase HLPC/HPLC; assay type: physicochemical
Experimental: The flow was maintained at 1 ml/min, and a KRATOS variable UVdetector at 265 nm was used. Two separate experiments were conducted under the above conditions in which the stability of (1E) was [drawing 16] monitored in excess of methanol.
The above two experiments indicate that (1E) is consumed at the same rate as the thiol tetrazole (D) is produced. The thiol tetrazole (D) is exclusively produced from the degradation of the thiocarbamate with methanol. In other words (1E) reacts with methanol to give thiol tetrazole (D) and most probably N-n-butyl, methylcarbamate which cannot be detected under the above conditions.

[2] = inactivation followed for 2 hours

| SMILES | kinact/KI (Human Leucocyte Elastase; [2]) [M⁻¹ s⁻¹] | inhibition of HLE (Human Leucocyte Elastase) | also measured |
| --- | --- | --- | --- |
| CCCCN(CC)C(=O)Sc1nnnn1-c1ccccc1 [Compound 5E, N-ethyl-N-butyl, 1-phenyl-1H-tetrazole-5-thiocarbamate] | 180 | – | – |
| CC(C)NC(=O)Sc1nnnn1-c1ccccc1 [Compound 3E, N-isopropyl, 1-phenyl-1H-tetrazole-5-thiocarbamate] | 3300 | – | times more active than 4E (Human Leucocyte Elastase; compared with (4E), kobs/I): 10 times |
| CCCCNCC [Compound 5A, ethyl, butylamine] | – | None of the corresponding amines (1A, 2A, 3A, 4A, 5A and 6A) nor 1-phenyl-1H-tetrazole-5-thiol (D) inhibited HLE | – |
| Nc1ccccc1 [Compound 4A] | – | None of the corresponding amines (1A, 2A, 3A, 4A, 5A and 6A) nor 1-phenyl-1H-tetrazole-5-thiol (D) inhibited HLE | – |
| C=CCNC(=O)Sc1nnnn1-c1ccccc1 [Compound 2E, N-allyl, 1-phenyl-1H-tetrazole-5-thiocarbamate] | 61000 | – | times more potent than PC1 (Human Leucocyte Elastase): 2 times |
| CC(C)N [Compound 3A, isopropyl amine] | – | None of the corresponding amines (1A, 2A, 3A, 4A, 5A and 6A) nor 1-phenyl-1H-tetrazole-5-thiol (D) inhibited HLE | – |
| CC(C)NC(C)C [Compound 6A] | – | None of the corresponding amines (1A, 2A, 3A, 4A, 5A and 6A) nor 1-phenyl-1H-tetrazole-5-thiol (D) inhibited HLE | – |
| Sc1nnnn1-c1ccccc1 [D, 1-phenyl-1H-tetrazole-5-thiol] | – | None of the corresponding amines (1A, 2A, 3A, 4A, 5A and 6A) nor 1-phenyl-1H-tetrazole-5-thiol (D) inhibited HLE | – |
| CCCCN [Compound 1A, n-butylamine] | – | None of the corresponding amines (1A, 2A, 3A, 4A, 5A and 6A) nor 1-phenyl-1H-tetrazole-5-thiol (D) inhibited HLE | – |
| C=CCN [Compound 2A] | – | None of the corresponding amines (1A, 2A, 3A, 4A, 5A and 6A) nor 1-phenyl-1H-tetrazole-5-thiol (D) inhibited HLE | – |
| CCCCNC(=O)Sc1nnnn1-c1ccccc1 [Compound 1E, N-butyl, 1-phenyl-1H-tetrazole-5-thiocarbamate] | 210000 | – | stability [1]: fairly stable; half-life ([1]; calculated from the pseudofirst order rate constants): 17 days; times more potent than PC1 (Human Leucocyte Elastase): 10 times |
| CC(C)N(C(=O)Sc1nnnn1-c1ccccc1)C(C)C [Compound 6E, N, N-diisopropyl, 1-phenyl-1H-tetrazole-5-thiocarbamate] | – | no inhibitory activity | kobs/I (class symbol) (Human Leucocyte Elastase; [2]): N.I. |
| O=C(Nc1ccccc1)Sc1nnnn1-c1ccccc1 [Compound 4E, N-phenyl, 1-phenyl-1H-tetrazole-5-thiocarbamate] | 190 | – | – |
